Results on one compound are retold here after patent US20250283049A1, “AGENT FOR CULTURING ORGANOID IN ABSENCE OF EXTRACELLULAR MATRIX” (KEIO UNIVERSITY, priority 2022, published 2025).

Common to all, as to type: cell-based
The subject of assay [1] is human small intestine-derived organoid. As to the kind of experiment: Culture of organoids in presence of Matrigel and LATS kinase inhibitor; cell number by ATP (CellTiter-Glo 3D). As to conditions: presence of Matrigel; 10 mM Lats-IN as printed; 7 days of culture; vs control without Lats-IN. As for the experimental part:
A human small intestine-derived organoid and a human large intestine-derived organoid were cultured in the presence of an inhibitor of LATS1 kinase and LATS2 kinase, Lats-IN-1 (CAS No. 1424635-83-5, hereinafter sometimes referred to as “Lats-IN” and also referred to as “TRULI”), and their dynamics were observed.
The human small intestine-derived organoid and the human large intestine-derived organoid used were those established from tissues derived from patients with gastrointestinal tumors who provided informed consent, in accordance with an ethical research plan approved by the Ethics Committee of the Keio University School of Medicine.
Each organoid was dissociated into single cells using TrypLE Express (Thermo Fisher Scientific Inc.) to obtain a cell suspension. […]
The cell proliferation was measured by measuring adenosine triphosphate (ATP) using a commercially available kit (product name “CellTiter-Glo 3D,” Promega Corporation).
The upper left panel of FIG. 2 is a photograph of a control (Ctrl) human small intestine-derived organoid cultured in the absence of Lats-IN, and the upper center panel of FIG. 2 is a photograph of a human small intestine-derived organoid cultured in the presence of Lats-IN. […] The vertical axis of the graph represents luminescence intensity (relative value) indicating the amount of ATP present.

Assay [2] deals with stomach-derived organoids, biliary tract-derived organoids, and mammary gland-derived organoids. Kind of assay: Culture of organoids derived from various organs in absence of Matrigel. As to conditions: Lats-IN 10 μM. The procedure:
It was examined whether organoids derived from various organs could be cultured in the absence of Matrigel (registered trademark) and in the absence or presence of Lats-IN (final concentration: 10 μM).
FIG. 11 presents representative photographs showing the results of culturing stomach-derived organoids, biliary tract-derived organoids, and mammary gland-derived organoids in the absence of Matrigel (registered trademark) and Lats-IN (Ctrl), or in the absence of Matrigel (registered trademark) and in the presence of Lats-IN (Lats-IN). The scale bar is 100 μm.

For assay [3], the system named is crypts collected from the human colon. As to the kind of experiment: Organoid establishment from human colon crypts dissociated into single cells; cell number by ATP. The following applies: absence of Matrigel, presence of TRULI; compared with presence of Matrigel. As for the experimental part:
Crypts were collected from the human colon and dissociated into single cells, then cultured in the presence of Matrigel (registered trademark) or in the absence of Matrigel (registered trademark) and in the presence of TRULI to establish organoids. In addition, the cell number in each organoid under the given conditions was measured by measuring ATP using a commercially available kit (product name “CellTiter-Glo 3D,” Promega Corporation).
The upper panel of FIG. 30 is a schematic view explaining an overview of this experimental example. The lower panel of FIG. 30 is a graph showing the results of measuring the proliferation of the organoids.

In the case of `O=C(N=c1sccn1Cc1ccccc1)c1c[nH]c2ncccc12` [Lats-IN], the “cell proliferation (cell number per well, ATP luminescence)” value in assay [1] is recorded as “significantly activated”. For the same compound, the “cell proliferation (photographs)” value in assay [2] was “activated”. For the same compound, the “cell proliferation (ATP) during organoid establishment” value in assay [3] is on record as “comparable to that observed in the presence of Matrigel”.
